One data set addresses T1, human TLR7 (Homo sapiens, UniProt Q9NYK1).
T1 construct: expressed in transfected cells; host or cells: HEK 293 (human embryonic kidney 293), stably transfected; co-transfected pNifty-Luciferase reporter
T1 sequence (Q9NYK1 27-1049): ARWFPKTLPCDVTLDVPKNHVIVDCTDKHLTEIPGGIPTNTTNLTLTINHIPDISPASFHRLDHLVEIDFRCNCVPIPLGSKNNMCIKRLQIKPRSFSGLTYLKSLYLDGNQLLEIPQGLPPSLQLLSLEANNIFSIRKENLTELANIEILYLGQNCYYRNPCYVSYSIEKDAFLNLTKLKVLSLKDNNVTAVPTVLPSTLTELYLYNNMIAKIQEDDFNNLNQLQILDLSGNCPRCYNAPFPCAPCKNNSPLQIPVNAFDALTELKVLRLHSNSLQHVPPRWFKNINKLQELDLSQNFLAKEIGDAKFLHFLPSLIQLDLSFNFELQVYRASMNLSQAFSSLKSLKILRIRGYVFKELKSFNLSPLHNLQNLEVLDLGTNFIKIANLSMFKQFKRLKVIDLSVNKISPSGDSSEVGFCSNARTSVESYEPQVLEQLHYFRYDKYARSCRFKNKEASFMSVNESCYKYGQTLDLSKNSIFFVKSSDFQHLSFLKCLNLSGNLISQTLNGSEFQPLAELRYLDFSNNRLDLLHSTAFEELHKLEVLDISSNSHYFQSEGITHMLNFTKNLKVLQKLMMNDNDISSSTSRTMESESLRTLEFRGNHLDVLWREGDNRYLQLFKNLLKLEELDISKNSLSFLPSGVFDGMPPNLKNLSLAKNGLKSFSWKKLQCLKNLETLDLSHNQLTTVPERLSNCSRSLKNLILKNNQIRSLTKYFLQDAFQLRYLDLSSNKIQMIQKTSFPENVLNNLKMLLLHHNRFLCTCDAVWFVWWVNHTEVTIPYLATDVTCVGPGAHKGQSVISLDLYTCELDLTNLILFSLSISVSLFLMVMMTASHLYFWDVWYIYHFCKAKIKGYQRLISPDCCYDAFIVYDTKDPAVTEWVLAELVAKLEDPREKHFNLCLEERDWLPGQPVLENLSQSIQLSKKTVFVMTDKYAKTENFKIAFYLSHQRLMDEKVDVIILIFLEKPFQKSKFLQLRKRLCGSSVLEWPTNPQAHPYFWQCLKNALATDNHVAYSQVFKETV
Briefly: Reporter gene assay: HEK293 cells stably transfected with human TLR7 and NF-kB-driven luciferase reporter.
Details: not given
It is filed as cell-based. The method, then:
Human embryonic kidney 293 (HEK 293) cells were stably transfected with human TLR7 and an NF-kB-driven luciferase reporter vector (pNifty-Luciferase). As a control assay, normal Hek293 transfected with pNifty-Luc were used. Cells were cultured in DMEM supplemented with 2 mM L-glutamine, 10% heart inactivated FBS, 1% penicillin and streptomycin, 2 μg/ml puromycin (InvivoGen #ant-pr-5) and 5 μg/ml of blasticidin (Invitrogen #46-1120). Bright-Glo™ Luciferase assay buffer and substrate were supplied by Promega #E263B and #E264B (assay substrate and buffer respectively). 384 well clear-bottom plates were supplied by Greiner bio-one (#789163-G) and were custom bar-coded plates.
Cells were plated at 25,000 cells/well in 384-well plates in a final volume of 50 μl of media. Cells were allowed to adhere to the plates after overnight (18 hours) culture at 37° C. and 5% CO2. Serially diluted experimental and positive control compounds were then dispensed to each well and incubated for 7 hours at 37° C. and 5% CO2. Cells stimulated with DMSO alone also serve as negative controls. After the incubation, 30 μl of the pre-mix assay buffer and substrate buffer were added to each well according to manufacturer's instructions.
The EC50 value in those experiments is given as that concentration of the test compound in question that provoke a response halfway between the baseline and maximum responses. […] Such EC50 values are obtained relative to the activity of resiquimod set to 100%.
On the technique in general: Reporter assays use an easily measured gene product as a stand-in for the process of interest.
As usually defined, the EC50 is the concentration giving half of the maximal effect. On to `COc1ccc(CCc2cnc3c(N)nc4cc(CCP(=O)(O)O)ccc4c3c2)c(C)c1` [Compound 11, 2-(5-amino-2-(4-methoxy-2-methylphenethyl)benzo[f][1,7]naphthyridin-8-yl)ethylphosphonic acid], for which the EC50 came out at 90 nM.

Regarding `Cc1ccc2c(c1)nc(N)c1ncc(CCc3ccc(OCCCCC(F)(F)P(=O)(O)O)cc3C)cc12` [Compound 4, 5-(4-(2-(5-amino-8-methylbenzo[f][1,7]naphthyridin-2-yl)ethyl)-3-methylphenoxy)-1,1-difluoropentylphosphonic acid], the EC50 is 559 nM.

Regarding `Cc1ccc2c(c1)nc(N)c1ncc(CCc3ccc(OCCCCCCP(=O)(O)O)cc3C)cc12` [Compound 23, 6-(4-(2-(5-amino-8-methylbenzo[f][1,7]naphthyridin-2-yl)ethyl)-3-methylphenoxy)hexylphosphonic acid], the EC50 was 791 nM.

On to `COc1ccc(CCc2cnc3c(N)nc4cc(C(=O)C(F)(F)P(=O)(O)O)ccc4c3c2)c(C)c1` [Compound 9, 2-(5-amino-2-(4-methoxy-2-methylphenethyl)benzo[f][1,7]naphthyridin-8-yl)-1,1-difluoro-2-oxoethylphosphonic acid], for which the EC50 was determined as 390 nM.

For `Cc1ccc2c(c1)nc(N)c1ncc(CCc3ccc(OCCOCCOCCP(=O)(O)O)cc3C)cc12` [Compound 26, 2-(2-(2-(4-(2-(5-amino-8-methylbenzo[f][1,7]naphthyridin-2-yl)ethyl)-3-methylphenoxy)ethoxy)ethoxy)ethylphosphonic acid], the EC50 came to 2590 nM.

As to `Cc1ccc2c(c1)nc(N)c1ncc(CCc3ccc(OCP(=O)(O)O)cc3C)cc12` [Compound 3, (4-(2-(5-amino-8-methylbenzo[f][1,7]naphthyridin-2-yl)ethyl)-3-methylphenoxy)methylphosphonic acid], a half-maximal response (EC50) required 3170 nM.

On to `Cc1ccc2c(c1)nc(N)c1ncc(CCc3ccc(OCCCCCC(F)(F)P(=O)(O)O)cc3C)cc12` [Compound 24, 6-(4-(2-(5-amino-8-methylbenzo[f][1,7]naphthyridin-2-yl)ethyl)-3-methylphenoxy)-1,1-difluorohexylphosphonic acid], for which the EC50 stood at 4260 nM.

In the case of `Cc1ccc2c(c1)nc(N)c1ncc(CCc3ccc(OCc4ccc(CC(F)(F)P(=O)(O)O)cc4)cc3C)cc12` [Compound 8, 2-(4-((4-(2-(5-amino-8-methylbenzo[f][1,7]naphthyridin-2-yl)ethyl)-3-methylphenoxy)methyl)phenyl)-1,1-difluoroethylphosphonic acid], it took 375 nM to reach a half-maximal effect (EC50).

Take `Cc1ccc2c(c1)nc(N)c1ncc(CCc3ccc(OCCOCCOCCC(F)(F)P(=O)(O)O)cc3C)cc12` [Compound 6, 3-(2-(2-(4-(2-(5-amino-8-methylbenzo[f][1,7]naphthyridin-2-yl)ethyl)-3-methylphenoxy)ethoxy)ethoxy)-1,1-difluoropropylphosphonic acid]: the EC50 worked out at 1640 nM.

As to `Cc1cc(OCCOCCOCCOCCP(=O)(O)O)ccc1CCc1cnc2c(N)nc3cc(CCC(=O)O)ccc3c2c1` [Compound 18, 3-(5-amino-2-(2-methyl-4-(2-(2-(2-(2-phosphonoethoxy)ethoxy)ethoxy)ethoxy)phenethyl)benzo[f][1,7]naphthyridin-8-yl)propanoic acid], the EC50 was 964 nM.

On to `COc1ccc(CCc2cnc3c(N)nc4cc(C(=O)P(=O)(O)O)ccc4c3c2)c(C)c1` [Compound 14, 5-amino-2-(4-methoxy-2-methylphenethyl)benzo[f][1,7]naphthyridine-8-carbonylphosphonic acid], for which the midpoint of the response, the EC50, lay at 885 nM.

Consider `Cc1cc(OCCCP(=O)(O)O)ccc1CCc1cnc2c(N)nc3cc(CCC(=O)O)ccc3c2c1` [Compound 15, 3-(5-amino-2-(2-methyl-4-(3-phosphonopropoxy)phenethyl)benzo[f][1,7]naphthyridin-8-yl)propanoic acid], for which the 50% effective concentration (EC50) amounted to 65 nM.

For `Cc1ccc2c(c1)nc(N)c1ncc(CCc3ccc(OCCP(=O)(O)O)cc3C)cc12` [Compound 22, 2-(4-(2-(5-amino-8-methylbenzo[f][1,7]naphthyridin-2-yl)ethyl)-3-methylphenoxy)ethylphosphonic acid], the EC50 worked out at 1160 nM.

`Cc1ccc2c(c1)nc(N)c1ncc(CCc3ccc(OCc4cccc(P(=O)(O)O)c4)cc3C)cc12` [Compound 13, 3-((4-(2-(5-amino-8-methylbenzo[f][1,7]naphthyridin-2-yl)ethyl)-3-methylphenoxy)methyl)phenylphosphonic acid]: a half-maximal response (EC50) required 1050 nM.

Compound `COc1ccc(CCc2cnc3c(N)nc4cc(/C=C(\F)P(=O)(O)O)ccc4c3c2)c(C)c1` [Compound 12, (E)-2-(5-Amino-2-(4-methoxy-2-methylphenethyl)benzo[f][1,7]naphthyridin-8-yl)-1-fluorovinylphosphonic acid] had an EC50 of 201 nM.

`Cc1ccc2c(c1)nc(N)c1ncc(CCc3ccc(OCCCCP(=O)(O)O)cc3C)cc12` [Compound 28, 4-(4-(2-(5-amino-8-methylbenzo[f][1,7]naphthyridin-2-yl)ethyl)-3-methylphenoxy)butylphosphonic acid] had an EC50 of 524 nM.

For the compound `COc1ccc(CCc2cnc3c(N)nc4cc(/C=C/P(=O)(O)O)ccc4c3c2)c(C)c1` [Compound 10, (E)-2-(5-Amino-2-(4-methoxy-2-methylphenethyl)benzo[f][1,7]naphthyridin-8-yl)vinylphosphonic acid], the response was half-maximal at 153 nM (EC50).

`Cc1ccc2c(c1)nc(N)c1ncc(CCc3ccc(OCc4ccc(CP(=O)(O)O)cc4)cc3C)cc12` [Compound 25, 4-((4-(2-(5-amino-8-methylbenzo[f][1,7]naphthyridin-2-yl)ethyl)-3-methylphenoxy)methyl)benzylphosphonic acid] came in with a half-maximal effective concentration (EC50) of 975 nM.

Take `Cc1ccc2c(c1)nc(N)c1ncc(CCc3ccc(OCCCCCP(=O)(O)O)cc3C)cc12` [Compound 27, 5-(4-(2-(5-amino-8-methylbenzo[f][1,7]naphthyridin-2-yl)ethyl)-3-methylphenoxy)pentylphosphonic acid]: the midpoint of the response, the EC50, lay at 921 nM.

`Cc1ccc2c(c1)nc(N)c1ncc(CCc3ccc(OCCOCCC(F)(F)P(=O)(O)O)cc3C)cc12` [Compound 7, 3-(2-(4-(2-(5-amino-8-methylbenzo[f][1,7]naphthyridin-2-yl)ethyl)-3-methylphenoxy)ethoxy)-1,1-difluoropropylphosphonic acid]: a half-maximal response (EC50) required 1010 nM.

The data set is the same for the next values; noted with them: HEK293 stably transfected with human TLR7 and NF-kB luciferase reporter; 7 hours incubation; relative to resiquimod set to 100%; read-out: Human TLR7 EC50 (nM) HEK293.
Turning to `Cc1ccc2c(c1)nc(N)c1ncc(CCc3ccc(OP(=O)(O)O)cc3C)cc12` [Compound 2, 4-(2-(5-amino-8-methylbenzo[f][1,7]naphthyridin-2-yl)ethyl)-3-methylphenyl dihydrogen phosphate], the EC50 amounted to 315 nM.

Turning to `Cc1cc(OCCOCCP(=O)(O)O)ccc1CCc1cnc2c(N)nc3cc(CCC(=O)O)ccc3c2c1` [Compound 21, 3-(5-amino-2-(2-methyl-4-(2-(2-phosphonoethoxy)ethoxy)phenethyl)benzo[f][1,7]naphthyridin-8-yl)propanoic acid], the EC50 is 204 nM.

Test system in another data set: not listed separately
Briefly: Binding to alum in 10 mM histidine buffer, LC-MS/MS of supernatant. It is filed as physicochemical. As to conditions: 10 mM histidine buffer pH 6.8; final compound 0.1 mg/mL; 37° C. for 5 hours; 100% minus % unbound.
Protocol: The resulting solution was diluted 10-fold with blank histidine buffer to a final compound concentration of 0.1 mg/mL. Diluted solutions were incubated at 37° C. for 5 hours. The samples were centrifuged at 14,000 rpm for 10 minutes to pellet the insoluble. The supernatant (along with an internal standard) was then evaluated by LC-MS/MS using a ballistic gradient (from 5% CH3CN-0.5% formic acid to 95% CH3CN-1.0% formic acid in 3.5 minutes) on a Waters Atlantis dC18 (50 mm×2.1 mm) column at room temperature against a calibration curve prepared at known compound concentrations ranging from 0.005 to 50 μM. The concentration in the supernatant was calculated as % unbound to alum compared to control; the % bound to alum was calculated as 100% minus % unbound.
Turning to `Cc1ccc2c(c1)nc(N)c1ncc(CCc3ccc(OCCOCCOCCC(F)(F)P(=O)(O)O)cc3C)cc12` [Compound 6, 3-(2-(2-(4-(2-(5-amino-8-methylbenzo[f][1,7]naphthyridin-2-yl)ethyl)-3-methylphenoxy)ethoxy)ethoxy)-1,1-difluoropropylphosphonic acid], the “% Alum bound in Histidine buffer” value is given as 98.2%.

`Cc1cc(OCCOCCC(F)(F)P(=O)(O)O)ccc1CCc1cnc2c(N)nc3cc(CCC(=O)O)ccc3c2c1` [Compound 19, 3-(5-amino-2-(4-(2-(3,3-difluoro-3-phosphonopropoxy)ethoxy)-2-methylphenethyl)benzo[f][1,7]naphthyridin-8-yl)propanoic acid]: the “% Alum bound in Histidine buffer” value is 96.0%.

These data come from patent US9045470B2, “Compounds and compositions as TLR activity modulators” (IRM LLC, priority 2009, dated 2015).
